Assays:
[1] = cited from earlier work
male Wistar rats = details: pretreated 30 minutes prior to CDDP infusion
Description: Complete data sets are obtained for five groups of five male Wistar rats (280-421 g). All animals are anesthetized with 1 ml/mg IM of Rompun cocktail (a solution containing 86.21 mg/ml ketamine and 2.76 mg/ml xylazine) prior to all injections and testing. Anesthesia is supplemented as needed with half doses throughout testing. The five groups include: a treated control group which received a dose of CDDP dissolved in normal sterile saline (1 mg of CDDP/ml normal saline; solution pH 6.3) administered by i.p. infusion with a Harvard Apparatus Infusion Pump, over a 30 minute period, an untreated control group that received an equivalent volume of normal saline (pH 6.5) instead of CDDP, and three experimental groups that receive various doses of protectant combination (comprising two or more of methionine protectant agents, carnitine, N-acetylcysteine, magnesium ions, lipoic acid, ebselen, glutathione, and glutathione ester) within the ranges described below dissolved in 3-5 ml of normal saline (solution pH 6.6) delivered by slow (over 1-2 minutes) i.p. injection 30 minutes prior to the same CDDP infusion as the treated control group. Both CDDP (purchased from Sigma Chemical Co., St. Louis) and the protectant combinations are freshly prepared before each experiment.

Compound: CSCC[C@@H](N)C(=O)O [D-methionine]
- excreted without conversion to the L-isomer ([1]; humans, except in L-methionine deprivation): 60-70%
- plasma levels compared with L-methionine ([1]; in the human): higher plasma levels than L-methionine
- survival until the end of the study period (male Wistar rats): all of the animals in each of these groups are expected to survive
